Results published in the kinase profiling compilation of Christmann-Franck et al. (2016).

Assays:
Assay in all cases: KINOMEscan competition binding
Conditions in all cases: compound 10.0 µM
MAP3K3 (human) = MAP3K3 (human) (UniProt Q99759)
TAOK3 (human) = TAOK3 (human) (UniProt Q9H2K8)
SRPK2 (human) = SRPK2 (human) (UniProt P78362)
STK32C (human) = STK32C (human) (UniProt Q86UX6)
MAP3K4 (human) = MAP3K4 (human) (UniProt Q9Y6R4)
SGK110 (human) = SGK110 (human) (UniProt P0C264)
PRKAA1 (human) = PRKAA1 (human) (UniProt Q13131)
CDK2 (human) = CDK2 (human) (UniProt P24941)
MKNK1 (human) = MKNK1 (human) (UniProt Q9BUB5)
PKMYT1 (human) = PKMYT1 (human) (UniProt Q99640)
PAK1 (human) = PAK1 (human) (UniProt Q13153)
EPHB2 (human) = EPHB2 (human) (UniProt P29323)
ACVR2B (human) = ACVR2B (human) (UniProt Q13705)
RIOK1 (human) = RIOK1 (human) (UniProt Q9BRS2)
CDC42BPA (human) = CDC42BPA (human) (UniProt Q5VT25)
EPHA5 (human) = EPHA5 (human) (UniProt P54756)
[1] = test system: ABL1 (human), P00519 [T315I]
CAMK2G (human) = CAMK2G (human) (UniProt Q13555)
RIOK2 (human) = RIOK2 (human) (UniProt Q9BVS4)
[2] = test system: PIK3CA (human), P42336 [C420R]
[3] = test system: RET (human), P07949 [V804L]
[4] = test system: FLT3 (human), P36888 [D835H]
CDC42BPG (human) = CDC42BPG (human) (UniProt Q6DT37)
CHEK1 (human) = CHEK1 (human) (UniProt O14757)
CDK15 (human) = CDK15 (human) (UniProt Q96Q40)
SRC (human) = SRC (human) (UniProt P12931)
PRKD3 (human) = PRKD3 (human) (UniProt O94806)
PI4KB (human) = PI4KB (human) (UniProt Q9UBF8)
HIPK2 (human) = HIPK2 (human) (UniProt Q9H2X6)
DAPK3 (human) = DAPK3 (human) (UniProt O43293)
RIPK4 (human) = RIPK4 (human) (UniProt P57078)
[5] = test system: EIF2AK4 KD2 (human), Q9P2K8 [S808G]
NEK6 (human) = NEK6 (human) (UniProt Q9HC98)
MAPK6 (human) = MAPK6 (human) (UniProt Q16659)
HCK (human) = HCK (human) (UniProt P08631)
FLT3 (human) = FLT3 (human) (UniProt P36888)
TNK2 (human) = TNK2 (human) (UniProt Q07912)
NIM1 (human) = NIM1 (human) (UniProt Q8IY84)
MAP3K9 (human) = MAP3K9 (human) (UniProt P80192)
MAP3K7 (human) = MAP3K7 (human) (UniProt O43318)
MST4 (human) = MST4 (human) (UniProt Q9P289)

Sequence of CHEK1 (human) (O14757 whole entry, looked up): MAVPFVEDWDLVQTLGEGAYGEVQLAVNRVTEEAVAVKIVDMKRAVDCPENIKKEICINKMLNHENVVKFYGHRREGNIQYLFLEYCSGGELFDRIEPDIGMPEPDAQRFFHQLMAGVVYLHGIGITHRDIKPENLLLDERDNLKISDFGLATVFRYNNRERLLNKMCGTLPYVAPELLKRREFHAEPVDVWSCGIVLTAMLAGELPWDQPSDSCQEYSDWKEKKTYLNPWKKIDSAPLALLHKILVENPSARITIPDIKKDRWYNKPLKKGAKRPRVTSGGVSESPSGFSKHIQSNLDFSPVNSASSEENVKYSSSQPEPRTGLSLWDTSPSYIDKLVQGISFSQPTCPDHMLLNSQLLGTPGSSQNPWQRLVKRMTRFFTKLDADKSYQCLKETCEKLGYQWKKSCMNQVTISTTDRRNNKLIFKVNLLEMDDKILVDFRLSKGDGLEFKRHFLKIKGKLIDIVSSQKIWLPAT
Sequence of PIK3CA (human), P42336 [C420R] (P42336 whole entry C420R, looked up): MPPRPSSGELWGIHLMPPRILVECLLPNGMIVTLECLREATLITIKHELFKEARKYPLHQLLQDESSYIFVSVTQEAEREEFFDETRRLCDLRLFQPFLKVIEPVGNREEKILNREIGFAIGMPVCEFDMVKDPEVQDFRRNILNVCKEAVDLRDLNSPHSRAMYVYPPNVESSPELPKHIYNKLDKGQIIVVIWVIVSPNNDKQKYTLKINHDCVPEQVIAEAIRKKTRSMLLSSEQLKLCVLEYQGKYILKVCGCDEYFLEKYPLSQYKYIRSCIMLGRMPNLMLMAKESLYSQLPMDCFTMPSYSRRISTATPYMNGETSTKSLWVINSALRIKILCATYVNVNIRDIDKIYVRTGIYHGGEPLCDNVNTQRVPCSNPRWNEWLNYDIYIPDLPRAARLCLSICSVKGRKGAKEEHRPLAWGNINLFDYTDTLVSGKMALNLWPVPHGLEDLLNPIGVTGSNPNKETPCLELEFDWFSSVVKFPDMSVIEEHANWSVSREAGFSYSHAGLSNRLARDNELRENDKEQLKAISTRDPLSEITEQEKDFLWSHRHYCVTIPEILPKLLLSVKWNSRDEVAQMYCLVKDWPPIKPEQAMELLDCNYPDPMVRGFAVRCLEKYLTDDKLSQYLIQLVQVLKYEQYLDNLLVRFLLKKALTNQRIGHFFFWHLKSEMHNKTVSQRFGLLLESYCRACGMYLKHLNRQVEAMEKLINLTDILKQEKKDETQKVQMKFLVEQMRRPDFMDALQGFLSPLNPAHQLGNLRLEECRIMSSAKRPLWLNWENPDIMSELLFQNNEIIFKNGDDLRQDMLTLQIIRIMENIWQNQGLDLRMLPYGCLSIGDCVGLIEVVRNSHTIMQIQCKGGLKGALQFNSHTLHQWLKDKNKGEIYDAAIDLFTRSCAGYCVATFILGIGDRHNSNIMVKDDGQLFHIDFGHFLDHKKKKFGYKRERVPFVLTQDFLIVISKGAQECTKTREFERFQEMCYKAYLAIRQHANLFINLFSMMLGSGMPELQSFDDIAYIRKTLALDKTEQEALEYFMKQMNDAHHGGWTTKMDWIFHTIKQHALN
Sequence of PAK1 (human) (Q13153 whole entry, looked up): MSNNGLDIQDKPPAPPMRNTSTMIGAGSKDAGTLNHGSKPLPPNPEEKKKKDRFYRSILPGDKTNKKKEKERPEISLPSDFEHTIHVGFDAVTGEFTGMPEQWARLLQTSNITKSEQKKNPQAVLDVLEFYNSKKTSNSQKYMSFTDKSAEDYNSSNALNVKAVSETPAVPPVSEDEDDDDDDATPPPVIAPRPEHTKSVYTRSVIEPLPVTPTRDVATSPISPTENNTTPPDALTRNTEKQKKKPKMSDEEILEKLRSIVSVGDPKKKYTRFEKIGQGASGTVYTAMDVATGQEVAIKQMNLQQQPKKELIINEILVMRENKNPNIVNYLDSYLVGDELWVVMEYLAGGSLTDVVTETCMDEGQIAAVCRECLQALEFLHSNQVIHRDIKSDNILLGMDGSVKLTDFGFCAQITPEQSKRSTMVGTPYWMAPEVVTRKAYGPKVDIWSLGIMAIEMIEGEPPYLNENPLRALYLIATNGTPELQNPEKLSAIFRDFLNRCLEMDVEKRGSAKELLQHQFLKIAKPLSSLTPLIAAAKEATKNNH
Sequence of HIPK2 (human) (Q9H2X6 whole entry, looked up): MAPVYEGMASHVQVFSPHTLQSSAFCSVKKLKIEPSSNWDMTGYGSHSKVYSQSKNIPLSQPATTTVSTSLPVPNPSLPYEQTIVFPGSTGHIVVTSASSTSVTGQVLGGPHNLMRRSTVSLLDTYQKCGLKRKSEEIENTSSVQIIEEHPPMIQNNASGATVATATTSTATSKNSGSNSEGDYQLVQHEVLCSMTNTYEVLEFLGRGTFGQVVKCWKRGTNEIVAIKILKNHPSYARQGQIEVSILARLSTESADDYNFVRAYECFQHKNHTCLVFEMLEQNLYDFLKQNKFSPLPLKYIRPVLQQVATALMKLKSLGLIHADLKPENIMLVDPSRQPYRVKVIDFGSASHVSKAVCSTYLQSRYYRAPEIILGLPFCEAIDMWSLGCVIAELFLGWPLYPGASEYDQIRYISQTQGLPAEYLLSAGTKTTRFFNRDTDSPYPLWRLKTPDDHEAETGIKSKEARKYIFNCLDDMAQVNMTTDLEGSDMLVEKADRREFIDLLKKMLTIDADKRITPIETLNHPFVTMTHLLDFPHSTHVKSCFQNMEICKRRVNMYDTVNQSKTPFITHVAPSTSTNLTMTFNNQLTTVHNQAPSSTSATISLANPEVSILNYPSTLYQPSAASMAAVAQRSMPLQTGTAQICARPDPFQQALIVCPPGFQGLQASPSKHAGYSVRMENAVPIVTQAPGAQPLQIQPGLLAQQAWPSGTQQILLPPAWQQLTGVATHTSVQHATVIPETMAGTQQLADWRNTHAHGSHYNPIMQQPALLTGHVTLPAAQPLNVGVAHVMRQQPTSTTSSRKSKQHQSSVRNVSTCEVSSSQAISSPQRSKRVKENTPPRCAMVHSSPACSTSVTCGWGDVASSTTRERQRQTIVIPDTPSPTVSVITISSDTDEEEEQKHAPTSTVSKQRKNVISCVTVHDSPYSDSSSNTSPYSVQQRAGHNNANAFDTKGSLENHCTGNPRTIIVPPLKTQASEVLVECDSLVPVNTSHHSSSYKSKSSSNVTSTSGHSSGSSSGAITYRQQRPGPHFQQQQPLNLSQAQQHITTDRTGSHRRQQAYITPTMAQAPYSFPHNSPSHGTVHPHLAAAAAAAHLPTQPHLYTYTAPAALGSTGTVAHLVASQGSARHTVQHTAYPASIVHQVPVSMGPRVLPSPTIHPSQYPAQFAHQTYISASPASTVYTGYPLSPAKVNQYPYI
Sequence of HCK (human) (P08631 whole entry, looked up): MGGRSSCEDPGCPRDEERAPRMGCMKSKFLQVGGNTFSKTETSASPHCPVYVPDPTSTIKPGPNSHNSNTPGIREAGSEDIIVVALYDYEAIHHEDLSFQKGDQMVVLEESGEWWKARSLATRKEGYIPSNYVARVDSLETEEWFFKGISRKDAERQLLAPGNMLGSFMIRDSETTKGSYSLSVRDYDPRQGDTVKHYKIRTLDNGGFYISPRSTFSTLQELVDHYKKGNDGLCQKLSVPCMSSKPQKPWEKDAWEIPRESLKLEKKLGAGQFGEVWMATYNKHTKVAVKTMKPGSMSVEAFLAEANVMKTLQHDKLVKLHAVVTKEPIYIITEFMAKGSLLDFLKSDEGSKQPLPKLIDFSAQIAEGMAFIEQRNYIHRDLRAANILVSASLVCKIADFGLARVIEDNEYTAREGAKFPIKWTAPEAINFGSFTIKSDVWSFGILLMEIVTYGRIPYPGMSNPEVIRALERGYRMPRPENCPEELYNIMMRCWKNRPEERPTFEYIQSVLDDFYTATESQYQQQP
Sequence of PKMYT1 (human) (Q99640 whole entry, looked up): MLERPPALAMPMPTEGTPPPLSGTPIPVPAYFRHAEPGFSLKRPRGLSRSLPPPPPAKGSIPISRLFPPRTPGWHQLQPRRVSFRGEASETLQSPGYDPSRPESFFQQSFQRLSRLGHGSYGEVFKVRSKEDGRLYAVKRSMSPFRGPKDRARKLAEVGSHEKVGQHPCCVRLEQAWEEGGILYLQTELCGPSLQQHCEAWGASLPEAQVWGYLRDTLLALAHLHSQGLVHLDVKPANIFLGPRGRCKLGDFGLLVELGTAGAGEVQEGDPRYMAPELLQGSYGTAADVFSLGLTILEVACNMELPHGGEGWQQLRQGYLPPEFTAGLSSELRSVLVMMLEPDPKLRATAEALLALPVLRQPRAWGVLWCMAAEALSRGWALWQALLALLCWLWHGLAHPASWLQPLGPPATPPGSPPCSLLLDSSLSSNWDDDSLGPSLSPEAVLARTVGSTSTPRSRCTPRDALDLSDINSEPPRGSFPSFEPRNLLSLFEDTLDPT
Sequence of CDK15 (human) (Q96Q40 whole entry, looked up): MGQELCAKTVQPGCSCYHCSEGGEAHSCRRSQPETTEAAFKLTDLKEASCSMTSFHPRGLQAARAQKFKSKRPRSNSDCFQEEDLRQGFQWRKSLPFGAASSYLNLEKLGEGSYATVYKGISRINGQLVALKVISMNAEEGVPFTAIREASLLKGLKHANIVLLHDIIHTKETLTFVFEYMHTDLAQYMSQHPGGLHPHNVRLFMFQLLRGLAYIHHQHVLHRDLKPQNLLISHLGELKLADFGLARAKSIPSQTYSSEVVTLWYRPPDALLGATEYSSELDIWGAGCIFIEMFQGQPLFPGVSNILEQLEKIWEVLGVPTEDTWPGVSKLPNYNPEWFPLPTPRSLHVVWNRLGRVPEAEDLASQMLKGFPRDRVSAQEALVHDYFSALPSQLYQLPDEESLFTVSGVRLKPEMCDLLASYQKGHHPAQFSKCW

## Cn1cc(C2=C(c3ccc(Cl)cc3Cl)C(=O)NC2=O)c2ccccc21
MAP3K3 (human)
  kinase still bound, per cent of control: 88%
TAOK3 (human)
  kinase still bound, per cent of control: 92%
SRPK2 (human)
  kinase still bound, per cent of control: 83%
STK32C (human)
  kinase still bound, per cent of control: 94%
MAP3K4 (human)
  kinase still bound, per cent of control: 98%
SGK110 (human)
  kinase still bound, per cent of control: 100%
PRKAA1 (human)
  kinase still bound, per cent of control: 61%
CDK2 (human)
  kinase still bound, per cent of control: 7.4%
MKNK1 (human)
  kinase still bound, per cent of control: 84%
PKMYT1 (human)
  kinase still bound, per cent of control: 100%
PAK1 (human)
  kinase still bound, per cent of control: 80%
EPHB2 (human)
  kinase still bound, per cent of control: 100%
ACVR2B (human)
  kinase still bound, per cent of control: 100%
RIOK1 (human)
  kinase still bound, per cent of control: 79%
CDC42BPA (human)
  kinase still bound, per cent of control: 100%
EPHA5 (human)
  kinase still bound, per cent of control: 99%
[1]
  kinase still bound, per cent of control: 80%
CAMK2G (human)
  kinase still bound, per cent of control: 58%
RIOK2 (human)
  kinase still bound, per cent of control: 95%
[2]
  kinase still bound, per cent of control: 86%
[3]
  kinase still bound, per cent of control: 100%
[4]
  kinase still bound, per cent of control: 32%
CDC42BPG (human)
  kinase still bound, per cent of control: 100%
CHEK1 (human)
  kinase still bound, per cent of control: 94%
CDK15 (human)
  kinase still bound, per cent of control: 66%
SRC (human)
  kinase still bound, per cent of control: 100%
PRKD3 (human)
  kinase still bound, per cent of control: 78%
PI4KB (human)
  kinase still bound, per cent of control: 94%
HIPK2 (human)
  kinase still bound, per cent of control: 15%
DAPK3 (human)
  kinase still bound, per cent of control: 69%
RIPK4 (human)
  kinase still bound, per cent of control: 100%
[5]
  kinase still bound, per cent of control: 100%
NEK6 (human)
  kinase still bound, per cent of control: 91%
MAPK6 (human)
  kinase still bound, per cent of control: 100%
HCK (human)
  kinase still bound, per cent of control: 100%
FLT3 (human)
  kinase still bound, per cent of control: 93%
TNK2 (human)
  kinase still bound, per cent of control: 100%
NIM1 (human)
  kinase still bound, per cent of control: 100%
MAP3K9 (human)
  kinase still bound, per cent of control: 89%
MAP3K7 (human)
  kinase still bound, per cent of control: 100%
MST4 (human)
  kinase still bound, per cent of control: 100%

## O=C1Nc2cc(Br)ccc2/C1=C1/Nc2ccccc2/C1=N\O
MAP3K3 (human)
  kinase still bound, per cent of control: 38%
TAOK3 (human)
  kinase still bound, per cent of control: 71%
SRPK2 (human)
  kinase still bound, per cent of control: 5.8%
STK32C (human)
  kinase still bound, per cent of control: 100%
MAP3K4 (human)
  kinase still bound, per cent of control: 85%
SGK110 (human)
  kinase still bound, per cent of control: 100%
PRKAA1 (human)
  kinase still bound, per cent of control: 4%
CDK2 (human)
  kinase still bound, per cent of control: 14%
MKNK1 (human)
  kinase still bound, per cent of control: 51%
PKMYT1 (human)
  kinase still bound, per cent of control: 90%
PAK1 (human)
  kinase still bound, per cent of control: 68%
EPHB2 (human)
  kinase still bound, per cent of control: 77%
ACVR2B (human)
  kinase still bound, per cent of control: 20%
RIOK1 (human)
  kinase still bound, per cent of control: 5.1%
CDC42BPA (human)
  kinase still bound, per cent of control: 70%
EPHA5 (human)
  kinase still bound, per cent of control: 30%
[1]
  kinase still bound, per cent of control: 0.65%
CAMK2G (human)
  kinase still bound, per cent of control: 8.8%
RIOK2 (human)
  kinase still bound, per cent of control: 18%
[2]
  kinase still bound, per cent of control: 100%
[3]
  kinase still bound, per cent of control: 0%
[4]
  kinase still bound, per cent of control: 1.8%
CDC42BPG (human)
  kinase still bound, per cent of control: 80%
CHEK1 (human)
  kinase still bound, per cent of control: 32%
CDK15 (human)
  kinase still bound, per cent of control: 53%
SRC (human)
  kinase still bound, per cent of control: 0.15%
PRKD3 (human)
  kinase still bound, per cent of control: 70%
PI4KB (human)
  kinase still bound, per cent of control: 39%
HIPK2 (human)
  kinase still bound, per cent of control: 7.4%
DAPK3 (human)
  kinase still bound, per cent of control: 2.7%
RIPK4 (human)
  kinase still bound, per cent of control: 40%
[5]
  kinase still bound, per cent of control: 14%
NEK6 (human)
  kinase still bound, per cent of control: 85%
MAPK6 (human)
  kinase still bound, per cent of control: 100%
HCK (human)
  kinase still bound, per cent of control: 1.2%
FLT3 (human)
  kinase still bound, per cent of control: 0.05%
TNK2 (human)
  kinase still bound, per cent of control: 28%
NIM1 (human)
  kinase still bound, per cent of control: 85%
MAP3K9 (human)
  kinase still bound, per cent of control: 3.4%
MAP3K7 (human)
  kinase still bound, per cent of control: 20%
MST4 (human)
  kinase still bound, per cent of control: 35%
